Results as given in article PMC7118210 (Frontiers in Pharmacology, 2020).
Like-named read-outs stand apart in the source and are kept apart here.

Legend:
[1] = Excretion in human urine and feces (mass balance); type: in vivo; conditions: for time within which excreted: humans
Description: All blood samples were transferred into heparin-treated centrifuge tubes and centrifuged for 10 min at 4,000 rpm and 4°C. All human urine samples were mixed and transferred (4 ml) into storage tubes. All biological samples were stored at −80°C.
The optimal volume and activity in unit volume of enzyme solution [0.2 M acetic acid/water solution: 0.2 M ammonium acetate/water solution, 15:35 (v/v)] were determined through a pretest of the enzyme (rat plasma, 10 μl, 10 U μl^-1; dog plasma, 10 μl, 10 U μl^-1; human plasma, 20 μl, 20 U μl^-1; human urine, 10 μl, 10 U μl^-1). […] To each fecal sample, 9-fold methanol-normal saline (2:1, v/v) was added, mixed (18,000 rpm, 15 min) by vortexing and centrifuged (10 min, 9,000 rpm, 4°C). […] Then, all plasma, urine, and fecal samples were extracted with ethyl acetate (rat plasma, 800 μl; dog plasma, 1,000 μl; human plasma, 3,000 μl; human urine, 3,000 μl; human feces, 3,000 μl) for at least 3 min by vortexing, centrifuged for 10 min at 3,900 rpm and 4°C; supernatants were transferred into centrifuge tubes and dried with N2. The solid material was dissolved with acetonitrile-water (1:1, v/v) and injected into the ultra high-performance liquid chromatography coupled with triple quadrupole mass spectrometry (UHPLC/MS/MS) system as described below.
The analysis of nonclinical and clinical samples was performed with a UHPLC/MS/MS system that consisted of a Shimadzu Nexera X2 ultra high-performance liquid chromatography (UHPLC) (Shimadzu Corp., Kyoto, Japan) coupled with an AB Sciex API4000 triple-quadrupole mass spectrometry (MS/MS) system (AB Sciex, Foster City, CA, USA) equipped with an electrospray ionization source and controlled by Analyst (v. 1.6.2) software. […] The mobile phase consisted of 0.1% formic acid (v/v) in water (A) and 0.1% formic acid in acetonitrile (B) using a linear gradient of 90% A (0–0.5 min), 90 to 60% A (0.5–1.5 min), 60% to 40% A (1.5–3.5 min), 40% to 10% A (3.5–4.5 min), 10% A (4.5–5.5 min), 10% to 90% A (5.5–6.0 min), and 90% A (6.0–7.5 min) for plasma; and 80% A (0–0.2 min), 80 to 64% A (0.2–2.0 min), 64% to 63% A (2.0–4.4 min), 63% to 0% A (4.4–4.5 min), 0% A (4.5–5.5 min), 0% to 90% A (5.5–5.6 min), 90% A (5.6–5.9 min), 90% to 35% A (5.9–6.0 min), 35% A (6.0–6.2 min), 35 to 80% A (6.2–6.3 min), and 80% A (6.3–7.5 min) for urine and feces. The injection volume was 10 μl with the flow rate of 0.3 ml min^-1 for plasma, and 0.4 ml min^-1 for urine and feces. The compounds were detected by multiple reaction monitoring in the negative ion electrospray mode. The electrospray source conditions were as follows: ion source gas1 30 psi, ion source gas2 60 psi, curtain gas 20 psi, collisionally activated dissociation (CAD) gas 8 psi, temperature 500°C, and ion spray voltage −4,500 V. Zero air was used for ion source gas1 and ion source gas2 and nitrogen for curtain gas and CAD gas.
Next, 9-fold normal saline, instead of ninefold methanol-normal saline (2:1, v/v), was added to maintain enzyme activity in the feces. […] These samples were maintained at 37°C for 12 h.

[2] = cited from earlier work
[3] = naringin 160 mg (high-fat diet) p.o., human
[4] = naringin 160 mg, three times a day, p.o., human

## C[C@@H]1O[C@@H](O[C@H]2[C@H](Oc3cc(O)c4c(c3)O[C@H](c3ccc(O)cc3)CC4=O)O[C@H](CO)[C@@H](O)[C@@H]2O)[C@H](O)[C@H](O)[C@H]1O [naringin, Naringin]
[1]
  time within which excreted: ≤ 48 h
[1]; naringin 40 mg p.o., human
  cumulative excretion in feces, Naringin: 0.122 ± 0.202 % of dose
  cumulative excretion in urine, Naringin: 0.067 ± 0.039 % of dose
[1]; naringin 80 mg p.o., human
  cumulative excretion in feces, Naringin: 0.023 ± 0.036 % of dose
  cumulative excretion in urine, Naringin: 0.037 ± 0.013 % of dose
[1]; [3]
  cumulative excretion in feces, Naringin: 9.85 ± 20.0 % of dose
  cumulative excretion in urine, Naringin: 0.025 ± 0.008 % of dose
[1]; naringin 160 mg p.o., human
  cumulative excretion in feces, Naringin: 0.016 ± 0.023 % of dose
  cumulative excretion in urine, Naringin: 0.027 ± 0.014 % of dose
[1]; [4]
  cumulative excretion in feces, Naringin: 0.563 ± 1.00 % of dose
  cumulative excretion in urine, Naringin: 0.034 ± 0.014 % of dose
[1]; naringin 320 mg p.o., human
  cumulative excretion in feces, Naringin: 0.126 ± 0.325 % of dose
  cumulative excretion in urine, Naringin: 0.033 ± 0.026 % of dose
[1]; naringin 480 mg p.o., human
  cumulative excretion in feces, Naringin: 0.023 ± 0.033 % of dose
  cumulative excretion in urine, Naringin: 0.012 ± 0.004 % of dose
[2]; aged rats, in the forms of naringin and naringenin, ref Zeng et al., 2019
  cumulative excretion percentage: 19%
[2]; aged rats, in the forms of naringin, naringenin, and 4-hydroxyphenylpropionic acid, ref Zeng et al., 2019
  cumulative excretion percentage: 98%
[2]; rats, in the forms of naringin, naringenin, and 4-hydroxyphenylpropionic acid, ref Liu M. et al., 2012
  cumulative excretion percentage: 21%
[2]; rats, ref Liu M. et al., 2012
  time within which excreted: ≤ 24 h

## O=C1C[C@@H](c2ccc(O)cc2)Oc2cc(O)cc(O)c21 [naringenin, Naringenin]
[1]
  time within which excreted: ≤ 48 h
[1]; [4]
  cumulative excretion in feces, Naringenin: 1.83 ± 2.32 % of dose
  cumulative excretion in urine, Naringenin: 28.3 ± 43.2 % of dose
[2]; rats, ref Liu M. et al., 2012
  time within which excreted: ≤ 24 h
